Biological target: T1, human plasmin (Homo sapiens, UniProt P00747)
T1 construct: precursors of plasmin, such as plasminogen
Assay: indirect enzymatic determination: release of pNA from chromogenic substrate S-2251 by plasmin in the presence of defibrotide
Assay type: biochemical
Procedure: 150 μl of each of the standard defibrotide solutions described above are taken and introduced into the wells of the microplates.
The plasmin solution is then prepared rapidly by adding, at 0° C., 3.8 ml of TRIS-HCl buffer to the test tube containing 0.2 ml of human plasmin solution. The whole is agitated gently until dissolution has occurred, and 50 μl are taken and introduced into the wells of the microplate, followed by 50 μl of S-2251 for each well.
The microplate, placed in the MRX TCII reader set at 37° C., is agitated for approximately 10 seconds; the absorbance readings are carried out at 405 nm, at the initial time t0 and subsequently every two minutes in the interval from 10 to 20 minutes, in accordance with the enzymatic kinetics program.
The microplate, placed in the MRX TCII reader set at 37° C., is agitated for approximately 10 seconds; the absorbance readings are taken at 405 nm, at the initial time t0 and subsequently every 5 minutes for a period from the 20th to the 50th minute, in accordance with the enzymatic kinetics program.
The absorbance values measured are then processed (Excel and Sigma Plot programs), tabulated and represented in a graph (regression lines).
In addition, considering the data reported in Table 1, 2 and 3, we have also calculated the μM/min of p-Nitroaniline released by plasmin acting on the chromogenic substrate in the presence of Defibrotide.
The “b” values reported in Tables 1, 2 and 3, namely the slopes of the kinetics curves, represent the ΔAbs/min×1000 (usually, just to avoid numbers with commas, the scale for the spectrophotometric readings in FIGS. 3, 4 and 5 was multiplied by 1000; as a consequence, the real spectrophotometric absorbance reading is obtained dividing “b” by 1,000).
Knowing from the literature, the Molar Extinction Coefficient for p-Nitroaniline (8,270 M^−1cm^−1, corresponding to 0.008270 Unit of Absorbance per μM of p-Nitroaniline) it follows that: 1μM p-Nitroaniline: 0.008270 (Absorbance)=X μM p-Nitroaniline: Spectrophotometric Reading (“b”/1000)
In this way we have calculated the micromoles of p-Nitroaniline released in the previous experiments, whose value are reported in table 4.

[1] = Mean±Standard Deviation of 5 replications, X = concentration of defibrotide (μg/ml)
[2] = Replication 2, X = concentration of defibrotide (μg/ml)
[3] = Replication 3, X = concentration of defibrotide (μg/ml)
[4] = Replication 4, X = concentration of defibrotide (μg/ml)
[5] = Replication 5, X = concentration of defibrotide (μg/ml)

T1 sequence (P00747 97-580 limits assumed): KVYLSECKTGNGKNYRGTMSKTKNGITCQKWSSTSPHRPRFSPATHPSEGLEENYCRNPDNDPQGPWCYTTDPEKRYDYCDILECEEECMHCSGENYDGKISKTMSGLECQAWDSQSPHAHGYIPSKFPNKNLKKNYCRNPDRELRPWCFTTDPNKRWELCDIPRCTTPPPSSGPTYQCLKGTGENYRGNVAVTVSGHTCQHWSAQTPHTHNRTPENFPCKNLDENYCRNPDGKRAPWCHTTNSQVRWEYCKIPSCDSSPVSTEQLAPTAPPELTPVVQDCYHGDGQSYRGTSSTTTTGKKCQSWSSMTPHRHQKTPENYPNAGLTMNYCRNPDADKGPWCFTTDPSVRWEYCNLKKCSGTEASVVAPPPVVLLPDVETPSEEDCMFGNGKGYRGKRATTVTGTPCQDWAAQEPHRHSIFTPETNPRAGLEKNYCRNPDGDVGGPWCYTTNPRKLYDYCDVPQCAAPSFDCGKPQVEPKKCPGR
T1 sequence (P00747 581-810 limits assumed): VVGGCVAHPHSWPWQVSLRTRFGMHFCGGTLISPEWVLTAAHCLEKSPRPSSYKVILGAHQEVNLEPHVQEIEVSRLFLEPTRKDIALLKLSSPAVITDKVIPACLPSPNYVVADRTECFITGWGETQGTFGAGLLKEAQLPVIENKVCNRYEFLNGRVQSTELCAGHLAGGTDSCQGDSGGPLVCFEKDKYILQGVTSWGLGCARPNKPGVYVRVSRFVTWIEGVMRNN

a of pNA(μM/min)=a+blog X [1]: 0.6908±0.0291 μM/min
b of pNA(μM/min)=a+blog X [1]: 0.3140±0.0437
slope b of regression μM/min p-Nitroaniline = a + b log X (Replication 1, X = concentration of defibrotide (μg/ml)): 0.3820
intercept a of regression μM/min p-Nitroaniline = a + b log X (Replication 1, X = concentration of defibrotide (μg/ml), 37° C., 405 nm): 0.7317 μM/min
intercept a of regression μM/min p-Nitroaniline = a + b log X [2]: 0.6625 μM/min
slope b of regression μM/min p-Nitroaniline = a + b log X [2]: 0.2907
intercept a of regression μM/min p-Nitroaniline = a + b log X [3]: 0.6708 μM/min
slope b of regression μM/min p-Nitroaniline = a + b log X [3]: 0.2741
intercept a of regression μM/min p-Nitroaniline = a + b log X [4]: 0.6792 μM/min
slope b of regression μM/min p-Nitroaniline = a + b log X [4]: 0.2907
intercept a of regression μM/min p-Nitroaniline = a + b log X [5]: 0.7100 μM/min
slope b of regression μM/min p-Nitroaniline = a + b log X [5]: 0.3323
Substance: Defibrotide
effect on rate of release of compound X (pNA) by plasmin from its substrate (plasmin-evaluation tests with substrate A1-A2-A3-X): increases the rate of release of compound X proportionally to its concentration
